Experiments:
[1] = biological target: T1, amyloid (aggregated Aβ1-40) (Homo sapiens, UniProt P05067); test: Measurement of affinity with amyloid: inhibition of [125I]3′-I-BTA-0 binding; details: [125I]3′-I-BTA-0 400 pmol/L, amyloid 1 μmol/L, 22° C., 3 hours
T1 construct: Aβ1-40 (Peptide Institute, INC.) was dissolved in phosphate buffer (pH 7.4); purchased Peptide Institute, INC
Procedure: Affinity of the present compounds with amyloid was examined by the following in vitro binding tests.
(1) Aβ1-40 (Peptide Institute, INC.) was dissolved in phosphate buffer (pH 7.4) and shaken at 37° C. for 62-72 hours, to obtain a 1 mg/mL suspension of aggregated Aβ (hereinafter referred to as amyloid suspension in this Example).
(3) According to the method described in a literature (Wang, Y., et al., J. Labeled Compounds Radiopharmaceut. 44, 5239 (2001)), [^125I]2-(3′-iodo-4′-aminophenyl)benzothiazole (hereinafter referred to as […]) was prepared from a labeling precursor 2-(4′-aminophenyl)benzothiazole, and dissolved in ethanol.
(5) Samples in which [^125I]3′-I-BTA-0, each compound for evaluation and amyloid were dissolved in a 0.1% bovine serum albumin-containing phosphate buffer (pH 7.4) at final concentrations shown in Table 1-2 were prepared. The resulting samples were filled in each well (about 0.3 mL in volume) of a 96-well microplate.
(6) The microplate filled with the sample solutions was shaken at a given rate (400 rpm) at 22° C. for 3 hours. Then, each sample solution was filtered through a glass fiber filter (trade name: Mulutiscreen™-FC, manufactured by Millipore), to separate the [^125I]3′-I-BTA-0 attached to amyloid from the free [^125I]3′-I-BTA-0.
(7) The glass fiber filter used for the filtration of each sample solution was washed with a 0.1% bovine serum albumin-containing phosphate buffer (pH 7.4) (0.5 mL×5), and radioactivity of the glass fiber filter was measured with an autowell gamma system (manufactured by Aloka, Type: ARC-301B).
(8) Separately, a solution of containing 15 μmol/L of 6-Me-BTA-2, […] of [^125I]3′-I-BTA-0 and 1 μmol/L of Aβ1-40 were prepared and subjected to the same procedures as described above in (6) and (7) to measure a radioactivity level. The measured radioactivity level was defined as the background radioactivity level, and used in the calculation of the inhibition ratio (hereinafter referred to as BG).
(9) Using the radioactivity levels measured above in (7) and (8), the inhibition ratio was determined by the following formula (1-1).
A graph in which values converted by probit transformation from the obtained inhibition ratios were plotted relative to logarithms of concentrations of compounds for evaluation was prepared to obtain an approximate straight line by the least square method. Using the line, the concentration of each compound for evaluation was determined, at which the radioactivity level is half of the level of the sample free from each compound for evaluation, and was defined as a 50% inhibition concentration of each compound (hereinafter referred to as IC50% value). Using the value as an indicator, affinity of each compound for evaluation with amyloid (aggregated Aβ1-40) was evaluated.

[2] = test system: Salmonella typhimurium TA98; test: Reverse mutation test (Ames test), TA98; type: cell-based
Procedure: (§1) In order to examine mutagenicity of Compound I-1, I-2, I-4 and I-5, reverse mutation test using Salmonella typhimurium TA98 and TA100 (hereinafter referred to as Ames test) was conducted.
(§2) The test was conducted without addition of S9mix and with addition of S9mix. Dimethylsulfoxide was used as a negative control. A positive control was 2-(2-furyl)-3-(5-nitro-2-furyl)acrylamide in case S9mix was not added, and 2-aminoanthracene in case S9mix was added.
(§3) The amount of each sample to be added to the test plate was 7 dosages (geometric ratio 4) with the maximum dose being 1250 μg/plate for Compounds I-1 and I-5, and 7 dosages (geometric ratio 3) with the maximum dose being 5000 μg/plate for Compounds I-2 and I-4. After a sample to be examined and a strain (TA98 or TA100), or a sample to be examined, S9mix and the strain were mixed together, the mixture was multilayered using soft agar on a medium of a test plate, and then incubated at 37° C. for 48 hours.

[3] = test system: Salmonella typhimurium TA100; test: Reverse mutation test (Ames test), TA100; type: cell-based
Procedure: as §1, §2, §3

[4] = test system: Salmonella typhimurium TA98 and TA100; test: Reverse mutation test (Ames test), overall judgment; type: cell-based; details: TA98 and TA100, with and without S9mix
Procedure: as §1, §2, §3
The numbers of reverse mutation colonies of the respective strains in the group treated with Compounds I-1, I-2, I-4 and I-5 were less than two times the number in the group treated with the negative control, regardless of addition of S9mix and the addition amount of a sample to be examined. From the aforementioned results, it is judged that Compounds I-1, I-2, I-4 and I-5 are negative in the Ames test and have no mutagenicity.

[5] = test system: Chinese Hamster fibroblast cell line (CHL/IU cell); test: Chromosome aberration test; type: cell-based; details: with or without S9 short-term treatment and 24-hour continuous treatment; 0.15-1.2 mg/mL
Procedure: In order to examine whether Compound I-4 can induce chromosome aberration, the chromosome aberration test was conducted using Chinese Hamster fibroblast cell line (CHL/IU cell) in a culture system with or without addition of S9 by short-term treatment process and in a 24-hour culture system by continuous treatment process. The addition amount of a sample to be tested was set to 1.2, 0.6, 0.3, and 0.15 mg/mL for all the respective culture systems.

[6] = test system: bone marrow cells of Crlj:CD1 (ICR) male mouse; test: Micronucleus test; type: in vivo; details: single oral administration 250-2000 mg/kg, 24 and 48 hours
Procedure: In order to study mutagenicity (in vivo) of Compound I-4, induction of micronucleated polychromatic erythrocyte (hereinafter referred to as MNPCE) was examined using bone marrow cells of Crlj:CD1 (ICR) male mouse.
0 mg/kg (negative control group), 250, 500, 1000 and 2000 mg/kg (test sample group) were set as doses for the test. Mice were sacrificed 24 and 48 hours after single oral administration, and bone marrow smear was prepared and observed. Further, a single dose of MMC at 2 mg/kg was abdominally administrated in positive control group, mice were sacrificed 24 hours after the administration, and then bone marrow smear was prepared and observed.
As statistical analysis, significance tests were conducted by Wilcoxon rank sum test for the appearance frequency of MNPCE and the ratio of polychromatic erythrocyte (hereinafter referred to as PCE) to the total red blood cell (hereinafter referred to as RBC) in each administration group concerning the test sample and positive control groups relative to the negative control group and concerning these groups relative to each other where the significance level was set to less than 5% and less than 1%, respectively.

[7] = Partition coefficient based on HPLC; type: physicochemical; details: mobile phase 50 mM triethylamine phosphate (pH 7.2)/acetonitrile=40/60
Procedure: Measurements of partition coefficient based on HPLC The partition coefficient by HPLC (hereinafter referred to as log PHPLC) was measured by the following method.
First, compounds for evaluation shown in Table 1-5 were dissolved at a concentration of 1 mg/mL in methanol containing 10% dimethylsulfoxide to prepare sample solutions. One μL of the sample solution was subjected to HPLC analysis under the following conditions to determine the elution time (t0) of the solvent and the elution time (tR) of each compound.
Column: Prodigy ODS (3) (product name; manufactured by phenomenex; size: 4.6×250 mm)
Mobile phase: a mixed solution of 50 mM triethylamine phosphate (pH 7.2)/acetonitrile=40/60
Detector: ultraviolet visible absorptiometer (detection wavelength: 282 nm)
Using the obtained t0 and tR, the retention factor (hereinafter referred to as K′HPLC value) of each compound for evaluation was determined according to the following calculation formula (1-3).
After the individual solutions were stirred for 30 seconds, the solutions were centrifuged at 2,000 rpm for 60 minutes. 1 mL each of the octanol phase and the water phase was fractionated, and the radioactivity was measured by an autowell gamma system (manufactured by Aloka Co., Ltd.: Type ARC-301B). Based on the obtained radioactivity, log Poctanol values were calculated according to the above equation (1-2). […]

[8] = Unspecific accumulation at sites without amyloid (applicant's studies); details: results of our studies
[9] = International Publication No. WO03/106439; cited from earlier work
[10] = Partition coefficient based on the octanol extraction method; type: physicochemical; details: octanol / 10 mmol/L phosphate buffer (pH 7.4)
Procedure: After the mixture was centrifuged with a low-speed centrifuge (2000 rpm×60 min.), the octanol layer and the water layer were sampled each in an amount of 1 mL, and subjected to measurement of radioactivity count with an autowell gamma system (manufactured by Aloka, Type: ARC-301B). Using the obtained radioactivity count, log Poctanol was calculated in accordance with the equation (1-2).

[11] = Transferability into brain and clearance; type: in vivo, male Wistar rats; details: rats, intravenous injection
From the text: Three animals were used for Experiment I-20 and Comparative Experiment I-9, and two animals were used for Experiment I-21 at the respective time points.

[12] = Partition coefficient based on the octanol extraction method (Example I-29); type: physicochemical; details: octanol / 10 mmol/L phosphate buffer (pH 7.4), Table I-9
Procedure: To 2 mL of octanol, 10 μL each of the prepared sample solutions was added, and 2 mL of a 10 mmol/L phosphate buffer (pH 7.4) was further added, followed by stirring for 30 seconds.

[13] = Transferability into brain and clearance (2); type: in vivo, male Wistar rats; details: rats, intravenous injection, Table 1-10
Procedure: 0.05 mL each of these solutions was injected under thiopental anesthesia into the tail vein of respective Wistar rats (7-week old). The rats were sacrificed by bleeding from abdominal artery, and brains were removed and subjected to measurement of mass of brains and further subjected to measurement of radioactivity (hereinafter referred to as A in this Example) with a single channel analyzer (detector type: SP-20 manufactured by OHYO KOKEN KOGYO Co., Ltd.) 2, 5, 30 and 60 minutes after the injection. Also, radioactivity (hereinafter referred to as B in this Example) of the rest of the whole body was measured in the same manner as above. Using these measurement results, radioactive distribution per unit weight of brain (% ID/g) at the respective time points were calculated in accordance with the following formula (1-7).
Three animals were used for experiment at the respective time points.

T1 sequence (P05067 672-711 limits assumed): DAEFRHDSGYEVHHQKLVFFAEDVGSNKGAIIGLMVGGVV

With `FCCOc1ccc(-c2cn3cc(I)ccc3n2)cc1` [Compound I-4, 2-[4′-(2″-fluoroethoxy)phenyl]-6-iodoimidazo[1,2-a]pyridine] the IC50 [1] was 900 pM, the “Mutagenicity, TA98, With addition of S9mix” value ([2]; with S9mix) was “Negative” and the “Mutagenicity, TA98, Without addition of S9mix” value ([2]; without S9mix) was “Negative”. For the same molecule, the “Mutagenicity, TA100, With addition of S9mix” value ([3]; with S9mix) was “Negative”, the “Mutagenicity, TA100, Without addition of S9mix” value ([3]; without S9mix) was “Negative” and the Ames test judgment [4] was “negative”. The “capability of inducing chromosome aberration” value [5] was “negative” and the “mutagenicity (in vivo), induction of micronucleus” value [6] was “negative”.
In the case of `CN(C)c1ccc(-c2cn3cc(I)ccc3n2)cc1` [IMPY, 6-iodo-2-[4′-(N,N-dimethylamino)phenyl]imidazo[1,2-a]pyridine], the logPHPLC value [7] is given as 2.1, the “unspecific accumulation on sites other than amyloid deposition” value [8] is given as “accumulates unspecifically on white matter or other sites where amyloid is not deposited” and the reverse mutation test [9] is given as “positive”.
With `CN(C)c1ccc(-c2cn3cc([123I])ccc3n2)cc1` [[^123I]-IMPY, reference compound] the logPoctanol value [10] was 2.1, the “Radioactive distribution per unit weight in brain, After 2 min.” value ([11]; 2 min.) was 1.02 % ID/g and the “Radioactive distribution per unit weight in brain, After 5 min.” value ([11]; 5 min.) was 0.99 % ID/g. For the same molecule, the “Radioactive distribution per unit weight in brain, After 30 min.” value ([11]; 30 min.) was 0.20 % ID/g, the “Radioactive distribution per unit weight in brain, After 60 min.” value ([11]; 60 min.) was 0.08 % ID/g and the logPoctanol value [12] was 2.1. For the same molecule, the “Radioactive distribution per unit weight in brain, After 2 min.” value ([13]; 2 min.) was 1.19 % ID/g, the “Radioactive distribution per unit weight in brain, After 5 min.” value ([13]; 5 min.) was 0.97 % ID/g and the “Radioactive distribution per unit weight in brain, After 30 min.” value ([13]; 30 min.) was 0.23 % ID/g. For the same molecule, the “Radioactive distribution per unit weight in brain, After 60 min.” value ([13]; 60 min.) was 0.09 % ID/g.

— US20100267952A1, “USE OF NOVEL COMPOUND HAVING AFFINITY FOR AMYLOID, AND PROCESS FOR PRODUCTION OF THE SAME” (NIHON MEDI-PHYSICS CO., LTD., priority 2007, published 2010)
